Assay results from patent publication US8906904B2, “Alkoxy pyrazoles as soluble guanylate cyclase activators” (Boehringer Ingelheim International GmbH, priority 2012, dated 2014).
Converted amounts (≈) assume the structure as drawn.

Assay: Assessment of solubility (McIlvaine buffers, 24 h shake, UPLC-UV)
Type: physicochemical
Conditions: kinetic from dmso stock
Method in brief: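 Compounds from 10 mM DMSO stocks were shaken for 24 h at room temperature in McIlvaine buffers at pH 2.2, 4.5 and 6.8 (2.5% v/v DMSO final), then filtered. Filtrates were quantified by UPLC-UV at 254 nm against a 50:50 acetonitrile/water reference assumed fully dissolved, as a single determination.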

Row | SMILES | solubility at 24 h (pH 2.2, aqueous buffer) [µg/mL] | solubility at 24 h (pH 4.5, aqueous buffer) [µg/mL] | solubility at 24 h (pH 6.8, aqueous buffer) [µg/mL]
1 | COc1c(C(=O)O)cnn1-c1cccc(-c2cccc(C)c2OCc2ccc3c(c2)CCN([C@H]2CC[C@@H](OC)CC2)C3)n1 [Compound 91] | 100 (≈ 172 µM) | 81 (≈ 139 µM) | 81 (≈ 139 µM)
2 | COc1c(C(=O)O)cnn1-c1cccc(-c2cccc(C)c2OCc2ccc3c(c2)CCN(C2C4CCOC4C2(C)C)C3)n1 (stereo not drawn) [Compound 75] | 120 (≈ 202 µM) | 93 (≈ 156 µM) | 90 (≈ 151 µM)
3 | CCOc1c(C(=O)O)cnn1-c1cccc(-c2cccc(C)c2OCc2ccc3c(c2)CCN(CC2CC(F)(F)C2)C3)n1 [Compound 96] | 93 (≈ 158 µM) | 67 (≈ 114 µM) | 75 (≈ 127 µM)
4 | COc1c(C(=O)O)cnn1-c1cccc(-c2cccc(C)c2OCc2ccc3c(c2)CCN(CCS(C)(=O)=O)C3)n1 [Compound 74] | 110 (≈ 191 µM) | 83 (≈ 144 µM) | 95 (≈ 165 µM)
5 | COc1c(C(=O)O)cnn1-c1cccc(-c2cccc(C)c2OCc2ccc3c(c2)CCN(CC2CC2(F)F)C3)n1 (stereo not drawn) [Compound 72, 1-(6-{2-[2-(2,2-difluoro-cyclopropylmethyl)-1,2,3,4-tetrahydro-isoquinolin-6-ylmethoxy]-3-methyl-phenyl}-pyridin-2-yl)-5-methoxy-1H-pyrazole-4-carboxylic acid] | 44 (≈ 78.5 µM) | 46 (≈ 82.1 µM) | 67 (≈ 120 µM)
6 | Cc1cccc(-c2cccc(-n3ncc(C(=O)O)c3OC(C)C)n2)c1OCc1ccc2c(c1)CCN(C1CCCOC1)C2 (stereo not drawn) [Compound 42] | 93 (≈ 160 µM) | 75 (≈ 129 µM) | 78 (≈ 134 µM)
7 | CCOc1c(C(=O)O)cnn1-c1cccc(-c2cccc(C)c2OCc2ccc3c(c2)CCN(C(C)CS(C)(=O)=O)C3)n1 (stereo not drawn) [Compound 70] | 86 (≈ 142 µM) | 57 (≈ 94.3 µM) | 64 (≈ 106 µM)
8 | COc1c(C(=O)O)cnn1-c1cccc(-c2cccc(C(F)(F)F)c2OCc2ccc3c(c2C)CCN(C2COC2)C3)n1 [Compound 88] | 90 (≈ 151 µM) | 63 (≈ 106 µM) | 75 (≈ 126 µM)
9 | CCOc1c(C(=O)O)cnn1-c1cccc(-c2cccc(Cl)c2OCc2ccc3c(c2)CCN(C2CCOCC2)C3)n1 [Compound 54] | 100 (≈ 170 µM) | 78 (≈ 132 µM) | 75 (≈ 127 µM)
10 | CCOc1c(C(=O)O)cnn1-c1cccc(-c2cccc(C)c2OCc2ccc3c(c2)CCN(CC2CCOC(C)(C)C2)C3)n1 (stereo not drawn) [Compound 80] | 110 (≈ 180 µM) | 94 (≈ 154 µM) | 95 (≈ 156 µM)
11 | CCOc1c(C(=O)O)cnn1-c1cccc(-c2cccc(C)c2OCc2ccc3c(c2)CCN(C2CC(C)(C)OC(C)(C)C2)C3)n1 [Compound 67] | 90 (≈ 144 µM) | 76 (≈ 122 µM) | 78 (≈ 125 µM)
12 | COc1c(C(=O)O)cnn1-c1cccc(-c2cc(F)cc(F)c2OCc2ccc3c(c2)CCN(C2CCOCC2)C3)n1 [Compound 53] | 84 (≈ 146 µM) | 65 (≈ 113 µM) | 70 (≈ 121 µM)
13 | CCOc1c(C(=O)O)cnn1-c1cccc(-c2cccc(C)c2OCc2ccc3c(c2)CCN(C2CCOC2)C3)n1 (stereo not drawn) [Compound 35] | 93 (≈ 168 µM) | 73 (≈ 132 µM) | 78 (≈ 141 µM)
14 | Cc1cccc(-c2cccc(-n3ncc(C(=O)O)c3OC(C)C)n2)c1OCc1ccc2c(c1C)CCN(C1COC1)C2 [Compound 45] | 82 (≈ 144 µM) | 61 (≈ 107 µM) | 73 (≈ 128 µM)
15 | Cc1cccc(-c2cccc(-n3ncc(C(=O)O)c3OC(C)C)n2)c1OCc1ccc2c(c1)CCN(C1CCC(F)(F)CC1)C2 [Compound 2] | 110 (≈ 178 µM) | 83 (≈ 135 µM) | 88 (≈ 143 µM)
16 | COc1c(C(=O)O)cnn1-c1cccc(-c2cccc(C)c2OCc2ccc3c(c2)CN(C2COC2)C3)n1 [Compound 85] | 120 (≈ 234 µM) | 96 (≈ 187 µM) | 110 (≈ 215 µM)
17 | Cc1cccc(-c2cccc(-n3ncc(C(=O)O)c3OC(C)C)n2)c1OCc1ccc2c(c1)CCN(CC1CC(F)(F)C1)C2 [Compound 4, 1-(6-{2-[2-(3,3-difluoro-cyclobutylmethyl)-1,2,3,4-tetrahydro-isoquinolin-6-ylmethoxy]-3-methyl-phenyl}-pyridin-2-yl)-5-isopropoxy-1H-pyrazole-4-carboxylic acid] | 100 (≈ 166 µM) | 81 (≈ 134 µM) | 83 (≈ 138 µM)
18 | Cc1cccc(-c2cccc(-n3ncc(C(=O)O)c3OC(C)C)n2)c1OCc1ccc2c(c1)CCN(C1COC1)C2 [Compound 39] | 93 (≈ 168 µM) | 44 (≈ 79.3 µM) | 81 (≈ 146 µM)

Row | SMILES | solubility at 24 h (pH 2.2, aqueous buffer) [µg/mL] | solubility at 24 h (pH 4.5, aqueous buffer) [µg/mL] | solubility at 24 h (pH 6.8, aqueous buffer) [µg/mL]
19 | COc1c(C(=O)O)cnn1-c1cccc(-c2cccc(C(F)(F)F)c2OCc2ccc3c(c2C)CCN(C2CCOCC2)C3)n1 [Compound 84] | 110 (≈ 177 µM) | 86 (≈ 138 µM) | 89 (≈ 143 µM)
20 | CCOc1c(C(=O)O)cnn1-c1cccc(-c2cccc(C)c2OCc2ccc3c(c2)CCN(CC2CCOC2)C3)n1 (stereo not drawn) [Compound 68] | 85 (≈ 149 µM) | 71 (≈ 125 µM) | 74 (≈ 130 µM)
21 | CCOc1c(C(=O)O)cnn1-c1cccc(-c2cccc(C)c2OCc2ccc3c(c2)CCN(C2CCCOC2)C3)n1 (stereo not drawn) [Compound 36] | 91 (≈ 160 µM) | 72 (≈ 127 µM) | 74 (≈ 130 µM)
22 | Cc1cccc(-c2cccc(-n3ncc(C(=O)O)c3OC(C)C)n2)c1OCc1ccc2c(c1)CCN(C(C)C)C2 [Compound 37] | 92 (≈ 170 µM) | 74 (≈ 137 µM) | 78 (≈ 144 µM)
23 | COCC(C)N1CCc2c(ccc(COc3c(C)cccc3-c3cccc(-n4ncc(C(=O)O)c4OC(C)C)n3)c2C)C1 (stereo not drawn) [Compound 44] | 100 (≈ 171 µM) | 85 (≈ 145 µM) | 88 (≈ 151 µM)
24 | CCOc1c(C(=O)O)cnn1-c1cccc(-c2cccc(C)c2OCc2ccc3c(c2)CCN(C2CCOC(C)C2)C3)n1 (stereo not drawn) [Compound 78] | 100 (≈ 172 µM) | 86 (≈ 148 µM) | 89 (≈ 153 µM)
25 | Cc1cccc(-c2cccc(-n3ncc(C(=O)O)c3OC(C)C)n2)c1OCc1ccc2c(c1C)CCN(CC1(C)COC1)C2 [Compound 46] | 100 (≈ 168 µM) | 82 (≈ 137 µM) | 86 (≈ 144 µM)
26 | COc1c(C(=O)O)cnn1-c1cccc(-c2cccc(C)c2OCc2ccc3c(c2)CCN(C2CCC(F)(F)CC2)C3)n1 [Compound 5] | 98 (≈ 166 µM) | 76 (≈ 129 µM) | 72 (≈ 122 µM)
27 | CCOc1c(C(=O)O)cnn1-c1cccc(-c2cccc(Cl)c2OCc2ccc3c(c2)CCN(C(C)CO)C3)n1 (stereo not drawn) [Compound 56] | 87 (≈ 155 µM) | 66 (≈ 117 µM) | 77 (≈ 137 µM)
28 | COc1c(C(=O)O)cnn1-c1cccc(-c2cccc(C)c2OCc2ccc3c(c2)CCN(C2CCOCC2)C3)n1 [Compound 3] | 96 (≈ 173 µM) | 79 (≈ 142 µM) | 81 (≈ 146 µM)
29 | COc1c(C(=O)O)cnn1-c1cccc(-c2cccc(C(F)(F)F)c2OCc2ccc3c(c2)CN(C2CCOCC2)C3)n1 [Compound 93] | 98 (≈ 165 µM) | 77 (≈ 130 µM) | 81 (≈ 136 µM)
30 | COc1c(C(=O)O)cnn1-c1cccc(-c2cccc(C)c2OCc2ccc3c(c2)CCN(C2CCOC(C)(C)C2)C3)n1 (stereo not drawn) [Compound 61] | 130 (≈ 223 µM) | 110 (≈ 189 µM) | 99 (≈ 170 µM)
31 | COc1c(C(=O)O)cnn1-c1cccc(-c2cccc(C(F)(F)F)c2OCc2ccc3c(c2)CCN(C2CCOCC2)C3)n1 [Compound 83] | 110 (≈ 181 µM) | 88 (≈ 145 µM) | 95 (≈ 156 µM)
32 | CCOc1c(C(=O)O)cnn1-c1cccc(-c2cccc(C)c2OCc2ccc3c(c2)CCN(C2COC2)C3)n1 [Compound 6] | 90 (≈ 166 µM) | 64 (≈ 118 µM) | 81 (≈ 150 µM)
33 | CCOc1c(C(=O)O)cnn1-c1cccc(-c2cccc(C)c2OCc2ccc3c(c2)CCN(C(C)CF)C3)n1 (stereo not drawn) [Compound 49, 5-ethoxy-1-(6-{2-[2-(2-fluoro-1-methyl-ethyl)-1,2,3,4-tetrahydro-isoquinolin-6-ylmethoxy]-3-methyl-phenyl}-pyridin-2-yl)-1H-pyrazole-4-carboxylic acid] | 92 (≈ 169 µM) | 69 (≈ 127 µM) | 58 (≈ 106 µM)
34 | COc1c(C(=O)O)cnn1-c1cccc(-c2cccc(F)c2OCc2ccc3c(c2)CCN(C2CCOCC2)C3)n1 [Compound 63] | 110 (≈ 197 µM) | 90 (≈ 161 µM) | 92 (≈ 165 µM)
35 | CCOc1c(C(=O)O)cnn1-c1cccc(-c2cccc(C)c2OCc2ccc3c(c2)CCN(C(C)C)C3)n1 [Compound 32] | 91 (≈ 173 µM) | 73 (≈ 139 µM) | 78 (≈ 148 µM)
